In article PMC8212695, “Discovery of a Highly Conserved Peptide in the Iron Transporter Melanotransferrin that Traverses an Intact Blood Brain Barrier and Localizes in Neural Cells” (Frontiers in Neuroscience, 2021):
Where two headings read alike, the source gives them in different places. Where no end group is shown, it is not given here.

Columns and labels:
[1] = system: in vitro BBB model: primary bovine brain capillary endothelial cells supported by primary rat glial cells
[2] = mouse, in vivo, iv
[3] = system: in vitro BBB model: primary bovine brain capillary endothelial cells supported by primary rat glial cells; remark: listed apart in the source
[4] = system: neurons, astrocytes, microglia, lysosomes, endosomes in the brain; assay: Cellular and subcellular localization of MTfp in mouse brain, 3D confocal microscopy; type: in vivo; conditions: mice injected IV with Cy5-MTfp
Method: Three sets of 3D fluorescence microscopy experiments were performed. The first set measured the BBB penetration of Cy5 tagged MTfp using DeltaVision Elite integrated with Huygens Deconvolution Software (GE, United States). As an extension of this, a set of sections were prepared to assess the cellular localization of the Cy-5 tagged MTfp in the CNS. The second set of experiments addressed the localization of Cy-5 tagged MTfp in various cell types and subcellular objects using the Leica SP8 X system (Leica, Germany).
The brains were removed and fixed with 4% paraformaldehyde overnight and then transferred into PBS+0.01% sodium azide and stored at 4°C. The brains were embedded in 4% agarose, fixed onto the microtome stage and sectioned (20 μm) at 4°C. The sections were stained with DAPI and then mounted on microscopic slides. Glass coverslips were mounted on the sections using Prolong Gold antifade reagent. In another experiment, to assess the localization of the peptide in the CNS, brains from mice injected with either PBS or Cy5-MTfp followed by FITC- tomato lectin. The brains were collected and processed as stated above. These were then incubated with antibodies targeted against neurons (NeuN; ab177487), microglia (TMEM; ab209064), astrocytes (GFAP; ab7260), lysosomes (LAMP-1; sc-19992-AF546) and endosomes (EEA-1; sc-137130), secondary antibody staining was done for unconjugated primary antibodies with Alexa fluor 680 goat anti-mouse IgG (cat# A21058), Alexa fluor 680 goat anti-rabbit IgG (Cat #A21076) and then counter-stained with DAPI, cover slipped, imaged and quantitatively analyzed to determine the extent of localization of various cell types and subcellular objects with MTfp.
The microscopy experiments, which quantitatively assessed the cellular location of MTfp within the brain, were performed using Leica SP8 X system (Leica, Germany). 3D confocal images were acquired with a Leica AOBS SP8 laser scanning confocal microscope (Leica, Heidelberg, Germany) using a high-resolution Leica 63X/1.4 or 40X/1.3 Plan-Apochromat oil immersion objective lens. Excitations were performed using either diode or tunable white light laser sources. All images and spectral data (except DAPI) were generated using the highly sensitive HyD detectors (with gated option) in de-scanned mode. The backscattered emission signals from the sample were delivered through the tunable filter (AOBS), the detection pinhole, spectral dispersion prism, and finally to the PMT/HyD detectors. For 3D image data set acquisition, the excitation beam was first focused at the maximum signal intensity focal position within the brain tissue sample and the appropriate HyD gain levels were then selected to obtain the pixel intensities within range of 0–255 (8-bit images) using a color gradient function. The beginning and end of the 3D stack were set based on the signal level degradation. Series of 2D images for a selected 3D stack volume were then acquired with 1,024 × 1,024 pixels. […]
For each tissue volume reported here, z-section images were compiled and finally the 3D image restoration was performed using VOLOCITY software (Perkin Elmar, United Kingdom). The volume estimation was performed on the 3D image data sets recorded from four or more cortical area of brain tissue samples. Algorithms were developed to automate the quantification of the test materials and blood capillaries, and to accurately quantify test materials localized in blood capillaries vs. brain parenchyma. […]

[5] = In vivo BBB penetration of Cy5-tagged peptides, 3D deconvolution fluorescence microscopy; conditions: mice, IV, Cy5 conjugates
[6] = stable isotopic LC-MS; ref Singh et al., 2020; cited from earlier work
From the text: In the context of the present study, the variability in conformation, glycosylation, anchoring and metal binding, presents potential complications to the use of sMTf as a robust, reproducible, clinically useful drug delivery vehicle. Therefore, to improve upon the utility of sMTf as a drug-delivery vector, we fragmented the protein in order to identify the minimally active region that retains the capability of carrying molecular cargo across the BBB. We report the identification of a 12 amino acid peptide (MTfp; […]), derived from melanotransferrin protein, that retains the ability cr ...

[7] = system: in vitro BBB model: primary bovine brain capillary endothelial cells supported by primary rat glial cells; assay: In vitro BBB model transcytosis of trypsin-digested sMTf, peptides identified by mass spectrometry; conditions: for Ablum 120:Area: MS peak area in abluminal compartment at 120 min; for Ablum 120:Area / Lum 120:Area: trypsin-digested sMTf 0.25 mg/mL luminal, Ringer-HEPES, 37°C, 2 h, LC-MS, one peptide may have several lines; for Lum 120:Area: MS peak area in luminal compartment at 120 min; for presence of MTf fragments on the abluminal side: after 2 h, SDS-PAGE and/or mass spectrometry

Row | Substance | Ablum 120:Area [1] | Lum 120:Area [1] | Abluminal vs. luminal [3] [%] | Abluminal vs. total [3] [%] | Ablum 120:Area [7] | Lum 120:Area [7] | presence of MTf fragments on the abluminal side [7] | also measured
1 | LCRGDSSGEGVCDK | 2.64E+05 | 2.17E+05 |  |  |  |  |  | 
2 | NYPSSLCALCVGDEQGR | 7.34E+07 | 6.15E+08 |  |  |  |  |  | 
3 | RLEDLTFAHSSDYC [revMTfp-Cy5, reference compound] |  |  |  |  |  |  |  | VT ABVP (Volume of Parenchymal Test Article normalized to Parenchymal Volume), Mean [2]: 6.6 7E-04
4 | GDSSGEGVCDKSPLER | 1.93E+09 | 5.08E+08 |  |  |  |  |  | 
5 | DSSHAFTLDELR [MTfp] |  |  | 2.41 | 1.90 | 5.87E+09 | 1.03E+10 | identified in the abluminal medium | MTfp found in the early endosomes ([4]; EEA-1 marker): approximately 20%; MTfp found in the lysosomes ([4]; LAMP-1 marker): 40%; astrocytes expressing GFAP co-labeled with MTfp ([4]; fluorescence volume fraction): 70%; microglia expressing TMEM co-labeled with MTfp ([4]; fluorescence volume fraction): 80%; neurons expressing NeuN co-labeled with MTfp ([4]; fluorescence volume fraction): 90%; BBB penetration efficiency compared with RVGp [5]: statistically similar; initial rate of entry into the brain [6]: 2.1 nM/min
6 | YYDYSGAFR |  |  | 0.13 | 0.05 | 6.41E+09 | 1.00E+09 | identified in the abluminal medium | 
7 | DSSHAFTLDELRGK | 1.99E+07 | 0.00E+00 |  |  |  |  |  | 
8 | ADVTEWR [ADVTEWR] |  |  | 1.32 | 0.82 | 1.05E+10 | 9.31E+08 | identified in the abluminal medium | 
9 | VPAHAVVVR |  |  | 2.49 | 1.52 | 1.24E+08 | 3.48E+07 | identified in the abluminal medium | 
10 | EHGLKPVVGEVYDQEVGTSYYAVAVVRR | 1.70E+07 | 0.00E+00 |  |  |  |  |  | 
11 | DSSHAFTLDELRYC [MTfp-Cy5] |  |  |  |  |  |  |  | VT ABVP (Volume of Parenchymal Test Article normalized to Parenchymal Volume), Mean [2]: 1.0 8E-03; fractional fluorescence in the brain parenchyma compared to mice injected with PBS or revMTfp-Cy5 [2]: Approximately two
12 | ADTDGGLIFR |  |  | 2.16 | 1.60 | 1.59E+10 | 1.11E+10 | identified in the abluminal medium | 
13 | ADTDGGLIFRLLNEGQR | 0.00E+00 | 3.69E+07 |  |  |  |  |  | 
14 | TVGWNVPVGYLVESGR | 0.00E+00 | 9.38E+07 |  |  |  |  |  | 
15 | IQAEQVDAVTLSGEDIYTAGK | 0.00E+00 | 3.48E+06 |  |  |  |  |  | 
16 | AVSDYFGGSCVPGAGETSYSESLCR | 5.49E+08 | 5.51E+09 |  |  |  |  |  | 
